Reference: ChEMBL document CHEMBL1201862, “PubChem BioAssay data set” (2004)
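Grown in 96-well plates, cells were treated for 48 hours with each compound at five concentrations. Insufficient inhibition: endpoint recorded as highest concentration tested. GI50 marks 50% less growth.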 The source made the active and inactive calls. Cut-off read from the data, not from the text of the source: active = GI50 up to about 1.1 µM and inactive = higher.

Experiments:
Assay in all cases: growth of human tumour cells (NCI), 48 h
TK-10 = test system: TK-10
SK-MEL-2 = test system: SK-MEL-2
SK-OV-3 = test system: SK-OV-3
Hs-578T = test system: Hs-578T
SK-MEL-28 = test system: SK-MEL-28
EKVX = test system: EKVX
SF-268 = test system: SF-268
UACC-62 = test system: UACC-62
RXF 393 = test system: RXF 393
SNB-75 = test system: SNB-75
ACHN = test system: ACHN
HCT-15 = test system: HCT-15
NCI-H460 = test system: NCI-H460
T47D = test system: T47D
SR = test system: SR
UACC-257 = test system: UACC-257
MDA-MB-435 = test system: MDA-MB-435
MCF7 = test system: MCF7
CCRF-CEM = test system: CCRF-CEM

| Structure (SMILES) | GI50 (TK-10) | GI50 (SK-MEL-2) | GI50 (SK-OV-3) | GI50 (Hs-578T) | GI50 (SK-MEL-28) | GI50 (EKVX) | GI50 (SF-268) | GI50 (UACC-62) | GI50 (RXF 393) | GI50 (SNB-75) | GI50 (ACHN) | GI50 (HCT-15) | GI50 (NCI-H460) | GI50 (T47D) | GI50 (SR) | GI50 (UACC-257) | GI50 (MDA-MB-435) | GI50 (MCF7) | GI50 (CCRF-CEM) |
| --- | --- | --- | --- | --- | --- | --- | --- | --- | --- | --- | --- | --- | --- | --- | --- | --- | --- | --- | --- |
| CC(C)(C)C1=C(Br)C(Br)(C(C)(C)C)OP1(=O)c1ccccc1 (centres undefined) | > 100 µM (inactive) | > 100 µM (inactive) | > 100 µM (inactive) | > 100 µM (inactive) | > 100 µM (inactive) | > 100 µM (inactive) | > 100 µM (inactive) | > 100 µM (inactive) | > 100 µM (inactive) | > 100 µM (inactive) | > 100 µM (inactive) | > 100 µM | > 100 µM (inactive) | 31.5 µM (inactive) | > 100 µM (inactive) | > 100 µM (inactive) | > 100 µM (inactive) | > 100 µM (inactive) | – |
| COC(=O)C1=C(O)c2ccc(Cl)cc2S(=O)(=O)N1C | > 100 µM (inactive) | > 100 µM (inactive) | > 100 µM (inactive) | > 100 µM (inactive) | > 100 µM (inactive) | 42.2 µM (inactive) | 64.7 µM (inactive) | > 100 µM (inactive) | > 100 µM (inactive) | – | > 100 µM (inactive) | 45.1 µM | 45.3 µM (inactive) | > 100 µM (inactive) | > 100 µM (inactive) | 93.3 µM (inactive) | > 100 µM (inactive) | > 100 µM (inactive) | 39.4 µM (inactive) |
| CC1(C)Oc2ccc3c(=O)c4ccccc4oc3c2C1C(=O)O (centres undefined) | > 100 µM (inactive) | > 100 µM (inactive) | > 100 µM (inactive) | > 100 µM (inactive) | – | > 100 µM (inactive) | > 100 µM (inactive) | > 100 µM (inactive) | > 100 µM (inactive) | – | – | – | – | > 100 µM (inactive) | > 10 µM (inactive) | > 100 µM (inactive) | > 100 µM (inactive) | > 100 µM (inactive) | > 100 µM (inactive) |
| N#CCCC(CCC#N)(CCC#N)NO | > 100 µM (inactive) | > 100 µM (inactive) | > 100 µM (inactive) | > 100 µM (inactive) | – | > 100 µM (inactive) | > 100 µM (inactive) | > 100 µM (inactive) | > 100 µM (inactive) | 73.8 µM (inactive) | > 100 µM (inactive) | > 100 µM | > 100 µM (inactive) | > 100 µM (inactive) | > 100 µM (inactive) | > 100 µM (inactive) | > 100 µM (inactive) | > 100 µM (inactive) | – |
| CC(C)(C)[Si](C)(C)OCC1OC(n2cc(F)c(=O)[nH]c2=O)CC1O[Si](C)(C)C(C)(C)C (centres undefined) | 2.84 µM (inactive) | 12.1 µM (inactive) | 14 µM (inactive) | 11.1 µM (inactive) | – | 8.04 µM (inactive) | 14.5 µM (inactive) | 5.14 µM (inactive) | 4.42 µM (inactive) | 4.03 µM (inactive) | 10.1 µM (inactive) | 7.24 µM | 2.4 µM (inactive) | 1.11 µM (active) | 3.1 µM (inactive) | 4.02 µM (inactive) | 12 µM (inactive) | 5.01 µM (inactive) | 4.17 µM (inactive) |
| CCOC(=O)/C(C(C)=O)=C(\OC(C)=O)c1ccncc1C(=O)O | – | > 100 µM (inactive) | > 100 µM (inactive) | > 100 µM (inactive) | > 100 µM (inactive) | > 100 µM (inactive) | > 100 µM (inactive) | > 100 µM (inactive) | > 100 µM (inactive) | > 100 µM (inactive) | > 100 µM (inactive) | > 100 µM | > 100 µM (inactive) | > 100 µM (inactive) | > 100 µM (inactive) | > 100 µM (inactive) | > 100 µM (inactive) | > 100 µM (inactive) | > 100 µM (inactive) |
| Cn1c(COC(=O)NC2CCCCC2)c(COC(=O)NC2CCCCC2)c2ccc3ccccc3c21 | 33.7 µM (inactive) | 31.6 µM (inactive) | > 100 µM (inactive) | 33.2 µM (inactive) | – | 47.2 µM (inactive) | 22.4 µM (inactive) | 48.6 µM (inactive) | 24 µM (inactive) | 26.1 µM (inactive) | 17.2 µM (inactive) | 48.1 µM | 3.01 µM (inactive) | 50.4 µM (inactive) | 2.96 µM (inactive) | 93.1 µM (inactive) | 14.3 µM (inactive) | 20.5 µM (inactive) | 9.77 µM (inactive) |
| OC1CCCCCCCCCCC1SCCCCl (centres undefined) | > 100 µM (inactive) | > 100 µM (inactive) | > 100 µM (inactive) | > 100 µM (inactive) | > 100 µM (inactive) | > 100 µM (inactive) | > 100 µM (inactive) | > 100 µM (inactive) | > 100 µM (inactive) | – | > 100 µM (inactive) | > 100 µM | > 100 µM (inactive) | > 100 µM (inactive) | > 100 µM (inactive) | > 100 µM (inactive) | > 100 µM (inactive) | > 100 µM (inactive) | – |
| CCN(CC)C(=O)N[C@@H](Cc1ccccc1)C(=O)NC | – | > 100 µM (inactive) | > 100 µM (inactive) | > 100 µM (inactive) | > 100 µM (inactive) | > 100 µM (inactive) | > 100 µM (inactive) | > 100 µM (inactive) | > 100 µM (inactive) | > 100 µM (inactive) | > 100 µM (inactive) | > 100 µM | > 100 µM (inactive) | > 100 µM (inactive) | > 100 µM (inactive) | – | > 100 µM (inactive) | > 100 µM (inactive) | > 100 µM (inactive) |
| CC1C[C@]2(C)C(=O)N(c3ccccc3)C(=N)[C@@H]2N(C)c2ccccc21 (some centres undefined) | > 100 µM (inactive) | > 100 µM (inactive) | – | > 100 µM (inactive) | > 100 µM (inactive) | > 100 µM (inactive) | > 100 µM (inactive) | > 100 µM (inactive) | > 100 µM (inactive) | 79.3 µM (inactive) | > 100 µM (inactive) | > 100 µM | > 100 µM (inactive) | > 100 µM (inactive) | > 100 µM (inactive) | > 100 µM (inactive) | > 100 µM (inactive) | > 100 µM (inactive) | > 100 µM (inactive) |
| O=C(Nc1ccccc1)OC1OC(COC(=O)c2ccccc2)C(OC(=O)c2ccccc2)C1OS(=O)(=O)c1ccc([N+](=O)[O-])cc1 (centres undefined) | > 100 µM (inactive) | > 100 µM (inactive) | > 100 µM (inactive) | 78.7 µM (inactive) | > 100 µM (inactive) | 63.8 µM (inactive) | > 100 µM (inactive) | > 100 µM (inactive) | > 100 µM (inactive) | – | > 100 µM (inactive) | > 100 µM | > 100 µM (inactive) | > 100 µM (inactive) | > 100 µM (inactive) | > 100 µM (inactive) | > 100 µM (inactive) | > 100 µM (inactive) | > 100 µM (inactive) |
| O/N=C1\CSc2ccccc2C1 | > 100 µM (inactive) | > 100 µM (inactive) | > 100 µM (inactive) | 41.8 µM (inactive) | > 100 µM (inactive) | 30.6 µM (inactive) | > 100 µM (inactive) | > 100 µM (inactive) | 72.3 µM (inactive) | – | > 100 µM (inactive) | > 100 µM | > 100 µM (inactive) | > 100 µM (inactive) | 94.4 µM (inactive) | > 100 µM (inactive) | > 100 µM (inactive) | > 100 µM (inactive) | > 100 µM (inactive) |
| COc1c(-c2nc3ccc(N4CCN(C)CC4)nc3[nH]2)cc(OC)c2[nH]c(COC(C)=O)nc12 | 38.5 µM (inactive) | 19.5 µM (inactive) | 14.5 µM (inactive) | > 100 µM (inactive) | 49.1 µM (inactive) | 54.2 µM (inactive) | 61.8 µM (inactive) | 47.9 µM (inactive) | 21.8 µM (inactive) | 24.4 µM (inactive) | 30.3 µM (inactive) | 46 µM | 31.6 µM (inactive) | 22.5 µM (inactive) | 3.78 µM (inactive) | 24.8 µM (inactive) | 26.5 µM (inactive) | 17.2 µM (inactive) | – |
| CN1C(=O)C23CCCCC2CC1(c1ccccc1)S3 (centres undefined) | 41.2 µM (inactive) | 47.5 µM (inactive) | > 100 µM (inactive) | 99.1 µM (inactive) | > 100 µM (inactive) | > 100 µM (inactive) | > 100 µM (inactive) | > 100 µM (inactive) | 59.2 µM (inactive) | – | > 100 µM (inactive) | 80 µM | – | 42.6 µM (inactive) | 58.5 µM (inactive) | 18.3 µM (inactive) | > 100 µM (inactive) | 78.2 µM (inactive) | – |
| N#CSC1CCCCNC1=O (centres undefined) | 16.1 µM (inactive) | 11.4 µM (inactive) | 9.98 µM (inactive) | 16.1 µM (inactive) | 13.4 µM (inactive) | 17.9 µM (inactive) | 11.8 µM (inactive) | 12.3 µM (inactive) | 13.7 µM (inactive) | – | 14.9 µM (inactive) | 11.8 µM | 12.5 µM (inactive) | 13 µM (inactive) | 6 µM (inactive) | 17.1 µM (inactive) | 13.9 µM (inactive) | 4.07 µM (inactive) | 5.55 µM (inactive) |
| CC(=O)OC1C(COC(=O)c2ccccc2)OC(Nc2ncc(-c3ccc(Br)cc3)s2)C(OC(=O)c2ccccc2)C1OC(=O)c1ccccc1 (centres undefined) | > 100 µM (inactive) | 14.5 µM (inactive) | > 100 µM (inactive) | > 100 µM (inactive) | > 100 µM (inactive) | > 100 µM (inactive) | > 100 µM (inactive) | > 100 µM (inactive) | > 100 µM (inactive) | > 100 µM (inactive) | > 100 µM (inactive) | > 10 µM | > 100 µM (inactive) | > 100 µM (inactive) | > 100 µM (inactive) | > 100 µM (inactive) | > 100 µM (inactive) | > 100 µM (inactive) | – |
